How the values were obtained:
Type in all cases: in vivo
[1] = test system: barnyardgrass (Echinochloa crus-galli); assay: Test A preemergence soil spray, visual injury rating 0-100; details: 10 days
How it was run: (§1)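 Scale 0–100 (no effect to complete control), visual, versus untreated controls, read 10 days after application. Application: preemergence directed spray onto seeded loam–sand soil, or postemergence to young plants; formulation in non-phytotoxic solvent with surfactant.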

[2] = test system: blackgrass (Alopecurus myosuroides); assay: as above; details: 10 days
How it was run: as §1

[3] = test system: corn (Zea mays); assay: as above; details: 10 days
How it was run: as §1

[4] = test system: green foxtail (Setaria viridis); assay: as above; details: 10 days
How it was run: as §1

[5] = test system: kochia (Bassia scoparia); assay: as above; details: 10 days
How it was run: as §1

[6] = test system: oat, wild (wild oat, Avena fatua); assay: as above; details: 10 days
How it was run: as §1

[7] = test system: palmer (palmer amaranth, palmer pigweed, Amaranthus palmeri); assay: as above; details: 62 g ai/ha, 10 days, 0 = no effect, 100 = complete control
How it was run: as §1

[8] = test system: ragweed (common ragweed, Ambrosia artemisiifolia); assay: as above; details: 10 days
How it was run: as §1

[9] = test system: ryegrass, Italian (italian ryegrass, Lolium multiflorum); assay: as above; details: 10 days
How it was run: as §1

[10] = test system: soybean (Glycine max); assay: as above; details: 10 days
How it was run: as §1

[11] = test system: wheat (Triticum aestivum); assay: as above; details: 10 days
How it was run: as §1

[12] = test system: barnyardgrass (Echinochloa crus-galli); assay: Test A postemergence application, visual injury rating 0-100
How it was run: as §1

[13] = test system: blackgrass (Alopecurus myosuroides); assay: as above
How it was run: as §1

[14] = test system: corn (Zea mays); assay: as above
How it was run: as §1

[15] = test system: green foxtail (Setaria viridis); assay: as above
How it was run: as §1

[16] = test system: horseweed (Erigeron canadensis); assay: as above; details: 62 g ai/ha, postemergence, 10 days, 0 = no effect, 100 = complete control
How it was run: as §1

[17] = test system: kochia (Bassia scoparia); assay: as above
How it was run: as §1

[18] = test system: oat, wild (wild oat, Avena fatua); assay: as above
How it was run: as §1

[19] = test system: palmer (palmer amaranth, palmer pigweed, Amaranthus palmeri); assay: as above
How it was run: as §1

[20] = test system: ragweed (common ragweed, Ambrosia artemisiifolia); assay: as above
How it was run: as §1

[21] = test system: ryegrass, Italian (italian ryegrass, Lolium multiflorum); assay: as above
How it was run: as §1

[22] = test system: soybean (Glycine max); assay: as above
How it was run: as §1

[23] = test system: wheat (Triticum aestivum); assay: as above
How it was run: as §1

[24] = test system: barnyardgrass (Echinochloa crusgalli); assay: Test B flooded paddy test, visual plant response rating 0-100; details: 250 g ai/ha, Flood, applied to paddy water, evaluated after 13 days
How it was run: (§2)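 Treatment occurs at the 2-leaf stage by adding compound to floodwater standing 3 cm above the soil, a level kept for the whole test. Plants stay in the greenhouse 13 days before visual comparison with controls.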

[25] = test system: ducksalad (Heteranthera limosa); assay: as above; details: 250 g ai/ha, Flood, applied to paddy water, evaluated after 13 days
How it was run: as §2

[26] = test system: rice (Oryza sativa); assay: as above; details: 250 g ai/ha, Flood, applied to paddy water, evaluated after 13 days
How it was run: as §2

[27] = test system: sedge, umbrella (small-flower umbrella sedge, Cyperus difformis); assay: as above; details: 250 g ai/ha, Flood, applied to paddy water, evaluated after 13 days
How it was run: as §2

[28] = 62 g ai/ha, 0 = no effect, 100 = complete control
[29] = 62 g ai/ha, postemergence, 10 days, 0 = no effect, 100 = complete control
[30] = Postemergence, 16 g ai/ha, greenhouse 10 days, 0 no effect, 100 complete control

CC(C)OC(=O)C1=CCC(NC(=O)C2(C)CN(c3cc(Cl)cc(Cl)c3)C(=O)O2)C1 (stereo not drawn) [Compound 105]
Barnyardgrass plant response rating ([1]; 16 g ai/ha, 0 to 100 scale): 0 | Barnyardgrass plant response rating (0-100) [1, 28]: 0 | Blackgrass plant response rating ([2]; 16 g ai/ha, 0 to 100 scale): 0 | Blackgrass plant response rating (0-100) [2, 28]: 0 | Corn plant response rating ([3]; 16 g ai/ha, 0 to 100 scale): 0 | Corn plant response rating (0-100) [3, 28]: 0 | Foxtail, Green plant response rating ([4]; 16 g ai/ha, 0 to 100 scale): 0 | Foxtail, Green plant response rating (0-100) [4, 28]: 0 | Kochia plant response rating ([5]; 16 g ai/ha, 0 to 100 scale): 0 | Kochia plant response rating (0-100) [5, 28]: 0 | Oat, Wild plant response rating ([6]; 16 g ai/ha, 0 to 100 scale): 0 | Oat, Wild plant response rating (0-100) [6, 28]: 0 | Pigweed, Palmer plant response rating (0-100) [7]: 10 | Ragweed plant response rating ([8]; 16 g ai/ha, 0 to 100 scale): 0 | Ragweed plant response rating (0-100) [8, 28]: 0 | Ryegrass, Italian plant response rating ([9]; 16 g ai/ha, 0 to 100 scale): 0 | Ryegrass, Italian plant response rating (0-100) [9, 28]: 0 | Soybean plant response rating ([10]; 16 g ai/ha, 0 to 100 scale): 0 | Soybean plant response rating (0-100) [10, 28]: 0 | Wheat plant response rating ([11]; 16 g ai/ha, 0 to 100 scale): 0 | Wheat plant response rating (0-100) [11, 28]: 0 | Barnyardgrass plant response rating (0-100) [12, 29]: 30 | Barnyardgrass plant response rating (0 to 100 scale) [12, 30]: 0 | Blackgrass plant response rating (0-100) [13, 29]: 10 | Blackgrass plant response rating (0 to 100 scale) [13, 30]: 0 | Corn plant response rating (0-100) [14, 29]: 10 | Corn plant response rating (0 to 100 scale) [14, 30]: 0 | Foxtail, Green plant response rating (0-100) [15, 29]: 0 | Foxtail, Green plant response rating (0 to 100 scale) [15, 30]: 0 | Horseweed plant response rating (0-100) [16]: 20 | Kochia plant response rating (0-100) [17, 29]: 0 | Kochia plant response rating (0 to 100 scale) [17, 30]: 0 | Oat, Wild plant response rating (0-100) [18, 29]: 0 | Oat, Wild plant response rating (0 to 100 scale) [18, 30]: 0 | Pigweed, Palmer plant response rating (0-100) [19, 29]: 10 | Pigweed, Palmer plant response rating (0 to 100 scale) [19, 30]: 0 | Ragweed plant response rating (0-100) [20, 29]: 0 | Ragweed plant response rating (0 to 100 scale) [20, 30]: 0 | Ryegrass, Italian plant response rating (0-100) [21, 29]: 0 | Ryegrass, Italian plant response rating (0 to 100 scale) [21, 30]: 0 | Soybean plant response rating (0-100) [22, 29]: 0 | Soybean plant response rating (0 to 100 scale) [22, 30]: 0 | Wheat plant response rating (0-100) [23, 29]: 0 | Wheat plant response rating (0 to 100 scale) [23, 30]: 0 | Plant response rating, Barnyardgrass (0 to 100 scale, 0 is no effect and 100 is complete control) [24]: 0 | Plant response rating, Ducksalad (0 to 100 scale, 0 is no effect and 100 is complete control) [25]: 0 | Plant response rating, Rice (0 to 100 scale, 0 is no effect and 100 is complete control) [26]: 0 | Plant response rating, Sedge, Umbrella (0 to 100 scale, 0 is no effect and 100 is complete control) [27]: 0

— patent publication US20260285850A1, “SUBSTITUTED OXAZOLIDINONES AND IMIDAZOLINONES AS HERBICIDES” (FMC CORPORATION, priority 2023, published 2026)
